Results from PubChem BioAssay (NCI).
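All cell lines were grown in 96-well plates and treated with compound for 48 hours. GI50 is the concentration that inhibits growth by half. At the TGI there is no net growth.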

Legend:
Experiment in all cases: NCI tumour cell line growth inhibition, 48 h
786-0 renal = test system: 786-0 renal
CAKI-1 renal = test system: CAKI-1 renal
IGROV1 ovarian = test system: IGROV1 ovarian
M14 melanoma = test system: M14 melanoma
MALME-3M melanoma = test system: MALME-3M melanoma
MDA-MB-435 = test system: MDA-MB-435
SF-268 CNS = test system: SF-268 CNS
SK-MEL-2 melanoma = test system: SK-MEL-2 melanoma
SK-MEL-5 melanoma = test system: SK-MEL-5 melanoma
SNB-19 CNS = test system: SNB-19 CNS
SR leukemia = test system: SR leukemia
TK-10 renal = test system: TK-10 renal
UACC-62 melanoma = test system: UACC-62 melanoma

SMILES	TGI (786-0 renal)	TGI (CAKI-1 renal)	TGI (IGROV1 ovarian)	TGI (M14 melanoma)	TGI (MALME-3M melanoma)	TGI (MDA-MB-435)	TGI (SF-268 CNS)	TGI (SK-MEL-2 melanoma)	TGI (SK-MEL-5 melanoma)	TGI (SNB-19 CNS)	TGI (SR leukemia)	TGI (TK-10 renal)	TGI (UACC-62 melanoma)	GI50 (CAKI-1 renal)	GI50 (MALME-3M melanoma)	GI50 (SK-MEL-2 melanoma)
CC(C)(C)c1cc(C(=O)/C=C/C=C/c2ccccc2)cc(C(C)(C)C)c1O	36.1 µM	> 100 µM	> 100 µM	41.4 µM	> 100 µM	> 70.4 µM	> 74 µM	34.5 µM	37.2 µM	77.8 µM	13.4 µM	59.2 µM	> 71.4 µM			
Cc1ccc(-c2cc(-c3ccc(Cl)cc3)nc(/N=C3\C(=O)N(CN4CCOCC4)c4ccc(Cl)cc43)n2)cc1	44.5 µM	85.5 µM	33.1 µM	> 100 µM	> 100 µM	65.9 µM	88.1 µM	39.9 µM	38.4 µM	> 100 µM	> 100 µM	72.2 µM	93.2 µM			
CC(=O)Nc1ccc2cc(C)c(=O)[nH]c2n1	> 100 µM	> 100 µM	> 100 µM	> 100 µM	> 100 µM	> 100 µM	> 100 µM	> 100 µM	> 100 µM	> 100 µM	> 100 µM	> 100 µM	> 100 µM			
O=C(NC(CO)Cc1ccc(Oc2cc(CC(CO)NC(=O)OCc3ccccc3)ccc2OC(=O)OCc2ccccc2)cc1)OCc1ccccc1 (centres undefined)	> 100 µM	> 100 µM	46.6 µM	55.1 µM	31.5 µM	45 µM	88.9 µM	58.3 µM		> 100 µM	60.8 µM	54.1 µM				
C[C@H]1C2Cc3cc(N)ccc3[C@@]1(C)CCN2CCc1ccccc1	> 100 µM	> 100 µM	> 100 µM	40 µM	54 µM	> 100 µM	> 100 µM	> 100 µM	37.2 µM	> 100 µM	> 100 µM	> 100 µM	> 100 µM			
O=C1/C(=C/c2ccccc2)NC(=S)N1CN1CCOCC1	> 100 µM		> 100 µM	> 100 µM	> 100 µM	> 100 µM	> 100 µM	> 100 µM	> 100 µM	> 100 µM	> 100 µM	> 100 µM	> 100 µM			
CC1C[C@]2(C)C(=O)Nc3ccccc3[C@@H]2Nc2ccccc21 (some centres undefined)	45.2 µM	74.3 µM	78.2 µM	55.3 µM	62 µM	55.5 µM	> 100 µM	45 µM	31.3 µM	> 100 µM	41.4 µM	58 µM	45.3 µM			
CC1(C)OC2C(O)CN3CCS[C@H]3C2O1 (some centres undefined)	> 100 µM	> 100 µM	> 100 µM	> 100 µM	> 100 µM	> 100 µM	> 100 µM	> 100 µM	> 100 µM	> 100 µM	> 100 µM	> 100 µM	> 100 µM			
NCCCNCCCCNCCCN	2.79 µM	11.6 µM	33.8 µM	29.4 µM	> 100 µM	> 68.2 µM	> 92.9 µM	> 100 µM	> 100 µM	> 100 µM	> 36.8 µM	18.9 µM	> 100 µM			
Cn1c(N)c2c3c(sc2nc1=O)CCCC3	> 75 µM	> 75 µM	> 75 µM		> 75 µM	> 75 µM	> 75 µM	> 75 µM	> 75 µM	> 75 µM	> 75 µM	> 75 µM	> 75 µM			
Cn1c(=O)c2c(no[n+]2[O-])c2ccccc21	39.1 µM	32.4 µM	31.4 µM	25.3 µM	29 µM	68.5 µM	59.2 µM	28.7 µM	26 µM	84.2 µM	52.3 µM	56.5 µM	31.8 µM			
S=c1[nH]n2c(COc3cccc(OCc4nnc5sc(=S)[nH]n45)c3)nnc2s1	> 100 µM	> 100 µM	> 100 µM	> 100 µM	> 100 µM	> 100 µM	> 100 µM	> 100 µM		> 100 µM	> 100 µM	> 100 µM	> 100 µM			
O=C(O)CCN(CCC(=O)O)c1ccc(/C=C2\SC(=S)NC2=O)cc1	> 100 µM	> 100 µM	> 100 µM	> 100 µM	> 100 µM	> 100 µM	> 100 µM	> 100 µM	> 100 µM	> 100 µM	> 100 µM	> 100 µM	> 100 µM			
CC(C)(C)[Si](C)(C)OC1/C(=C/C#N)C(n2ccc(=O)[nH]c2=O)OC1CO (centres undefined)	> 100 µM	> 100 µM		> 100 µM	> 100 µM	> 100 µM	> 100 µM	> 100 µM	> 100 µM	> 100 µM	> 100 µM	> 100 µM	> 100 µM			
O=C(NS(=O)(=O)OCC(Cl)(Cl)Cl)SCCC(F)(F)C(F)(F)C(F)(F)C(F)(F)C(F)(F)C(F)(F)F	> 100 µM	92.7 µM	> 100 µM	48.6 µM	37.7 µM	55 µM	> 100 µM	66.8 µM		36.2 µM	> 100 µM	62.6 µM	40.6 µM			
N#C/C(N)=C(\C#N)NC=NCc1ccccc1	> 100 µM	> 100 µM	> 100 µM	> 100 µM	> 100 µM	> 100 µM	> 100 µM	> 100 µM	> 100 µM	> 100 µM	> 100 µM	> 100 µM	> 100 µM			
COc1ccc(C(=O)/C=C/c2ccncc2)cc1OC	23.5 µM	29.2 µM	26.6 µM	27.8 µM	32.5 µM	28.1 µM	30.5 µM	30.8 µM	30.7 µM	32.5 µM	> 100 µM	30 µM	30 µM			
COc1ccc(N2C(=O)CS(=O)(=O)C2c2cccc(Oc3ccccc3)c2)cc1 (centres undefined)	21.1 µM	19.3 µM		22.6 µM	54.6 µM	7.08 µM	38.4 µM	15.9 µM	16.7 µM	> 100 µM	8.48 µM	8.46 µM	6.25 µM			

SMILES	TGI (786-0 renal)	TGI (CAKI-1 renal)	TGI (IGROV1 ovarian)	TGI (M14 melanoma)	TGI (MALME-3M melanoma)	TGI (MDA-MB-435)	TGI (SF-268 CNS)	TGI (SK-MEL-2 melanoma)	TGI (SK-MEL-5 melanoma)	TGI (SNB-19 CNS)	TGI (SR leukemia)	TGI (TK-10 renal)	TGI (UACC-62 melanoma)	GI50 (CAKI-1 renal)	GI50 (MALME-3M melanoma)	GI50 (SK-MEL-2 melanoma)
O=S(=O)(O)c1ccc(N=Nc2ccc(N=Nc3c(O)ccc4ccccc34)cc2)cc1	> 100 µM	> 100 µM	> 100 µM	> 100 µM	> 100 µM	> 100 µM	> 100 µM	> 100 µM	> 100 µM	> 100 µM	> 100 µM	> 100 µM	> 100 µM			
COc1ccc(C(OCC2OC(n3cc(C)c(=O)[nH]c3=O)CC2n2cc(Cn3cc(Br)c(=O)[nH]c3=O)nn2)(c2ccccc2)c2ccccc2)cc1 (centres undefined)	> 100 µM	> 100 µM	> 100 µM	> 100 µM	> 100 µM	> 100 µM	> 100 µM	> 100 µM	> 100 µM	> 100 µM	> 100 µM	> 100 µM	> 100 µM			
Nc1nc2c(ncn2Cc2ccc(CO)cc2)c(=O)[nH]1	> 100 µM	> 100 µM	> 100 µM	> 100 µM	> 100 µM	> 100 µM	> 100 µM	> 100 µM	> 100 µM	> 100 µM	> 100 µM	> 100 µM	> 100 µM			
C[C@@H]1CCC2[C@@H](C)[C@@H](OCCO[C@H]3OC4O[C@@]5(C)CCC6[C@H](C)CCC([C@H]3C)[C@@]46OO5)OC3O[C@@]4(C)CCC1[C@]32OO4 (some centres undefined)	> 100 µM	2.07 µM	> 100 µM	> 100 µM	> 100 µM	98.9 µM	> 100 µM	6.06 µM	> 39.8 µM	> 100 µM	> 100 µM	> 100 µM	> 100 µM			
CCOC(=O)C1=C(N)Oc2ccc(Br)cc2C1C(C#N)C(=O)OCC (centres undefined)	70.1 µM	> 100 µM	36.5 µM	> 100 µM	41 µM	37.9 µM	38.5 µM	39.1 µM	42.6 µM	68.1 µM	> 100 µM	36.2 µM	83.5 µM			
COc1ccc(OC)c(N2C(=O)CSC2c2cc(OC)c(OC)c(OC)c2)c1 (centres undefined)	> 100 µM	> 100 µM	> 100 µM	> 100 µM	> 100 µM	86 µM	> 100 µM	> 100 µM	> 100 µM	> 100 µM	> 100 µM	> 100 µM	> 100 µM			
CN1CCN(CN2C(=O)C3C4C=CC(C3C2=O)C2C(=O)N(CN3CCN(C)CC3)C(=O)C42)CC1 (centres undefined)	97.7 µM	> 100 µM	> 100 µM	> 80.6 µM	> 92 µM	> 100 µM	> 100 µM	> 100 µM		> 100 µM	> 100 µM	> 100 µM	> 56.9 µM			
Cc1ccc(-c2c3c(n(C4OC(CO)C(O)C(O)C4O)c(=S)c2C#N)CC(C)(C)CC3=O)cc1 (centres undefined)	> 100 µM	> 100 µM	> 100 µM	> 100 µM	> 100 µM	> 100 µM	> 100 µM	> 100 µM	> 100 µM	> 100 µM	> 100 µM	> 100 µM	> 100 µM			
CCOC(=O)c1ccc(C(=O)/C(C#N)=C2\CCCN2C)[nH]1	> 100 µM	> 100 µM	> 100 µM	> 100 µM	> 100 µM	> 100 µM	> 100 µM	> 100 µM	> 100 µM	> 100 µM	> 100 µM	> 100 µM	> 100 µM			
CCCCCC(/C=C/C1CCC(=O)C1CC#C[Si](C)(C)C)OCc1ccccc1 (centres undefined)	28.3 µM	36.8 µM	28.7 µM	77.8 µM	37.8 µM	41.7 µM	29.4 µM	35 µM	27.9 µM	> 84.8 µM	> 57.4 µM	60.5 µM	30.6 µM			
CC(CCC#N)(CCC#N)C(=O)CC(O)(C(F)(F)F)C(F)(F)F	4.72 µM	8.32 µM	29.3 µM	4.81 µM	12 µM	72.7 µM	> 58.8 µM	89.2 µM	28.5 µM	53 µM	3.77 µM	25.1 µM	19.8 µM			
COc1ccc(CN(Cc2ccc(OC)cc2)C(=O)CC2(O)C=CCC2)cc1 (centres undefined)	> 100 µM	> 100 µM	> 100 µM	> 100 µM	> 100 µM	> 100 µM		> 100 µM	> 100 µM	> 100 µM	> 100 µM	> 100 µM	> 100 µM			
CN(C)/C=N/n1c2ccccc2c2ccccc21	> 100 µM	75.8 µM	> 100 µM	> 100 µM	> 100 µM	> 100 µM	> 100 µM	> 100 µM	> 100 µM	> 100 µM	> 100 µM	> 100 µM	> 100 µM			
COC(=O)c1c(O)ccc2c1c1c(n2Cc2ccc(Cl)cc2Cl)C(=O)c2ccccc2C1	> 100 µM		> 100 µM	> 100 µM	> 100 µM	> 100 µM	> 100 µM	> 100 µM	> 100 µM	> 100 µM	> 100 µM	> 100 µM	> 100 µM			
COc1ccc(OC)c(C2Cc3cnc4nc(N)nc(N)c4c3C2)c1 (centres undefined)	89.9 µM	> 100 µM	50.2 µM	> 100 µM	47.3 µM	65 µM	> 100 µM	42.2 µM	> 100 µM	> 100 µM	44.9 µM	79.8 µM	51.5 µM			
Cc1c(CNc2ccc(C(=O)NC(CC(=O)O)C(=O)O)cc2)ccc2nc(N)nc(N)c12 (centres undefined)	> 1000 µM	> 1000 µM	> 1000 µM	> 1000 µM	> 1000 µM	> 1000 µM	> 1000 µM	> 1000 µM	> 1000 µM	> 1000 µM	> 1000 µM		> 1000 µM	48.6 µM	< 0.01 µM	> 1000 µM
COc1ccc(CCN=C2OCc3ccccc32)cc1OC	> 100 µM	> 100 µM	> 100 µM		> 100 µM	> 100 µM		> 100 µM	> 100 µM	> 100 µM	62.3 µM	> 100 µM	> 100 µM			
